PubChem BioAssay AID1918945 (Molecular Pharmacology Branch, DTP, NCI, 2023)
pIC50: −log10 of the molar value. Several values for one entry are separate records, joined by “and”; a condition that tells them apart may be missing. Equal entries are not always repeated.

Test system: 883617-216-R-J1-PDC complex spheroid viability
Test: Anticancer human tumor 883617-216-R-J1-PDC patient-derived bladder carcinoma cell line growth inhibition
Conditions: for viability, T/C: stronger effect = lower value
From the text: Multicellular complex tumor spheroid response to LSD1 Inhibitor Iadademstat in combination with a variety of drugs and investigational agents in selected tumor cell lines
The current study was undertaken to assess response to LSD1 inhibitors in combination with standard-of-care drugs and investigational agents in solid tumor complex spheroid models as well as in the K-562 leukemia. Complex spheroids include a stromal component modeled by human endothelial cells (HUVEC) and fibroblasts modeled by human mesenchymal stem cells (MSCs). The concentration ranges selected for each drug and investigational agent were based upon clinically achievable concentrations if the clinical Cmax of the agent was known.
Compounds. The drugs and investigational agents used in this study are listed on Table 1. All of the agents used, including staurosporine (NSC755774) and gemcitabine (NSC613327), were obtained from the Developmental Therapeutics Program, NCI. FDA-approved anticancer drugs are available from the NCI at http://dtp.nci.nih.gov/branches/dscb/oncology_drugset_explanation.html. Drugs and investigational agents were >95% pure by proton nuclear magnetic resonance (NMR) and liquid chromatography/mass spectrometry (LC/MS). Stock solutions were prepared at 400x in DMSO, stored at -70 degrees C, and diluted in fresh medium prior to their use. The final concentration of DMSO in cell culture wells never exceeded 0.25% (v/v). The FDA-approved anticancer drug set is available from the Developmental Therapeutics Program at https://dtp.cancer.gov/organization/dscb/obtaining/available_plates.htm. All drugs and investigational agents were tested over a range starting from a high concentration at or near the clinical Cmax and decreasing in half-log increments. If the clinical Cmax for an agent had not been determined, the highest concentration tested was 10 microM.
Cell Lines. The patient-derived cancer cell (PDC) lines: 292921-168-R-J2-PDC, K24384-001-R-PDC, and 521955-158-R2-J5-PDC pancreatic carcinomas, 556581-035-R-J1 ovarian carcinoma, 324938-238-R-J1-PDC, 855422-203-R-J1-PDC and 883617-216-R-J1-PDC urothelial bladder carcinomas, 743489-274-T-PDC renal cell carcinoma, 138582-R-J1 Merkel cell tumor, K60290-347-R-J1 and K57222-313-R-J1-PDC glioblastomas, 653999-131-R-J2-PDC, LG0703-F948-PDC, and 349418-098-R-PDC non-small cell lung carcinomas, 885512-296-R-J2-PDC, 171881-019-R-J1-PDC breast carcinomas and 186277-243-T-J2-PDC and 233499-124-R-J2-PDC colon carcinomas were obtained from the NCI Patient-Derived Models Repository (PDMR, https://pdmr.cancer.gov). The established cell lines NCI/ADR-RES (RRID:CVCL_14520 and OVCAR-5 (RRID:CVCL_1628) ovarian carcinomas, 786-O (RRID:CVCL_1051) and A498 (RRID:CVCL_A498) renal cell carcinoma, NCI-H211 (ATCC, cat. CRL-5824; RRID:CVCL_1529), NCI-H196 (ATCC, cat. CRL-5823, RRID:CVCL_1509), SW 1271 (ATCC, cat. CRL-2177, RRID:CVCL_1716) and NCI-H1876 (ATCC, cat. CRL-5902, RRID:CVCL_1503) small cell lung carcinomas, MDA-MB-231 (RRID:CVCL_0062) and MDA-MB-468 (RRID:CVCL_0419)breast carcinomas (10-12). Pooled donor human umbilical vein endothelial cells (HUVEC, Lonza, cat. CC-2519) and human mesenchymal stem cells (hMSC, Lonza, cat. PT-2501) were purchased from Lonza (Walkersville, MD).
Cell Culture. All cells were maintained in an incubator at 37 degrees C and 5% CO2 with 95% humidity. The PDC lines were cultured according to standard operating procedures established by the NCI PDMR (https://pdmr.cancer.gov). Briefly all PDCs were thawed and cultured in Matrigel-coated flasks prepared with a working solution of 1X Ham's F-12 nutrient mix, without supplementation (Invitrogen, Waltham, MA, cat. 11765054), 100 U/mL penicillin-streptomycin (Invitrogen, cat. 15140122), and 2.5% Matrigel (Corning Inc., Corning, NY, cat. 354248) for the first three passages. […]
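Also: exposure lasted seven days after three days of spheroid growth.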
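For viability, T/C in this document: 100% = DMSO vehicle control luminescence.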

Row | SMILES | viability, T/C (compound 0.00316 µM) | viability, T/C (compound 0.01 µM) | viability, T/C (compound 0.0316 µM) | viability, T/C (compound 0.1 µM) | pIC50 (curve of compound) | viability, T/C (compound 0.316 µM) | viability, T/C (compound 1 µM) | viability, T/C (compound 0.00949 µM) | viability, T/C (compound 0.03 µM) | viability, T/C (compound 0.0949 µM) | viability, T/C (compound 0.3 µM) | other results
1 | CC(C)CC(NC(=O)C(Cc1ccccc1)NC(=O)c1cnccn1)B(O)O (stereo not drawn) | 13.8% and 0.88% | 1.11% and 0.16% | 1.27% and 0.13% | 0.62% and 0.21% | 8.72 and 9.06 |  |  |  |  |  |  | viability, T/C (compound 0.000316 µM): 103% and 98.5%; viability, T/C (compound 0.001 µM): 95.8% and 43.5%
2 | CC(C)CC(NC(=O)CNC(=O)c1cc(Cl)ccc1Cl)B1OC(=O)CC(CC(=O)O)(C(=O)O)O1 (stereo not drawn) | 85% and 52.1% | 39.5% and 23.1% | 15.8% and 1.76% | 2.31% and 0.36% | 8.10 and 8.43 |  |  |  |  |  |  | viability, T/C (compound 0.000316 µM): 101% and 95.7%; viability, T/C (compound 0.001 µM): 106% and 87%
3 | CC(C)c1c(-c2ccccc2)nc2c(C#N)c[nH]n2c1=O |  |  | 97.4% and 97.3% | 97.7% and 103% | < 5.00 | 104% and 111% | 96% and 94.4% |  |  |  |  | viability, T/C (compound 3.16 µM): 98.8% and 101%; viability, T/C (compound 10 µM): 86.8% and 86.7%
4 | CC1(C)CCC(CN2CCN(c3ccc(C(=O)NS(=O)(=O)c4ccc(NCC5CCOCC5)c([N+](=O)[O-])c4)c(Oc4cnc5[nH]ccc5c4)c3)CC2)=C(c2ccc(Cl)cc2)C1 |  |  | 107% and 103% | 111% and 102% | 5.10 and 5.15 | 111% and 99% | 109% and 106% |  |  |  |  | viability, T/C (compound 3.16 µM): 111% and 102%; viability, T/C (compound 10 µM): 34.5% and 27.7%
5 | CC1COCCN1c1cc(-c2ccnn2C)c2ccnc(-c3ccn[nH]3)c2n1 (stereo not drawn) | 83.2% and 50.8% | 64.8% and 42.2% | 47% and 33.7% | 35% and 27.4% | 7.58 and 8.45 | 34.6% and 23.9% | 26.3% and 21.2% |  |  |  |  | 
6 | CC1COCCN1c1cc(C2(S(C)(=N)=O)CC2)nc(-c2ccnc3[nH]ccc23)n1 (stereo not drawn) |  |  | 103% and 94.9% | 98.4% and 71.9% | 6.14 and 6.42 | 65.3% and 47.5% | 44.2% and 42.4% |  |  |  |  | viability, T/C (compound 3.16 µM): 39.6% and 31.8%; viability, T/C (compound 10 µM): 28.1% and 23.8%
7 | CCN(c1cc(-c2ccc(CN3CCOCC3)cc2)cc(C(=O)NCc2c(C)cc(C)[nH]c2=O)c1C)C1CCOCC1 |  |  |  |  | < 5.52 |  |  | 98.4% and 76.7% | 84.1% and 80.7% | 85.5% and 79.5% | 87.4% and 70.5% | viability, T/C (compound 0.949 µM): 89.7% and 63.1%; viability, T/C (compound 3 µM): 77.4% and 63.9%
8 | CC[C@@]1(O)C(=O)OCc2c1cc1n(c2=O)Cc2cc3c(CN(C)C)c(O)ccc3nc2-1 | 60.2% and 37.7% | 38.6% and 29.1% | 39.1% and 27.6% | 27.7% and 20% | 8.23 and 8.71 |  |  |  |  |  |  | viability, T/C (compound 0.000316 µM): 95.7% and 78.2%; viability, T/C (compound 0.001 µM): 78.1% and 65.8%
9 | CCc1c2c(nc3ccc(O)cc13)-c1cc3c(c(=O)n1C2)COC(=O)[C@]3(O)CC |  |  |  |  | > 9.02 |  |  | 22.8% and 18.7% | 24.2% and 13% | 1.74% and 0.3% | 0.21% and 0.19% | viability, T/C (compound 0.000949 µM): 34.5% and 24.9%; viability, T/C (compound 0.003 µM): 27.7% and 18.2%
10 | COc1cc(C2c3cc4c(cc3C(OC3OC5COC(C)OC5C(O)C3O)C3COC(=O)C23)OCO4)cc(OC)c1O (stereo not drawn) |  |  |  |  | 6.70 and 7.06 |  |  | 94.6% and 80.4% | 99.6% and 65.2% | 64.6% and 46.6% | 45.4% and 38.4% | viability, T/C (compound 0.949 µM): 44.4% and 41.1%; viability, T/C (compound 3 µM): 35.4% and 29.4%
11 | COc1cc(Nc2ncc3c(n2)-c2ccc(Cl)cc2C(c2c(F)cccc2OC)=NC3)ccc1C(=O)O | 99.2% and 68.6% | 73.5% and 63.5% | 53.3% and 44% | 49% and 36.2% | 7.17 and 7.65 | 45.1% and 34.5% | 48.5% and 34.6% |  |  |  |  | 
12 | COc1ccc([C@@H](O)c2cc(-c3ncnc4cc(N5CCOCC5)ccc34)c(F)cc2Cl)nn1 |  |  | 91.2% and 99.6% | 89.8% and 86.9% | 6.00 and 6.28 | 67.2% and 52.7% | 48.6% and 41.2% |  |  |  |  | viability, T/C (compound 3.16 µM): 37.1% and 26.7%; viability, T/C (compound 10 µM): 22.2% and 14.9%
13 | Cn1ncnc1C1c2n[nH]c(=O)c3cc(F)cc(c23)NC1c1ccc(F)cc1 (stereo not drawn) | 105% and 70.6% | 75.7% and 48.9% | 64.4% and 38.5% | 54.2% and 38% |  |  |  |  |  |  |  | viability, T/C (compound 0.000316 µM): 104% and 89.5%; viability, T/C (compound 0.001 µM): 104% and 89.1%
14 | NC1CC1c1ccc(-c2cccc(O)c2)cc1 (stereo not drawn) |  |  |  | 107% |  |  |  |  |  |  |  | pIC50 (compound alone, run of 12/07/2021): < 5.00
15 | NC1CCC(NC2CC2c2ccccc2)CC1 (stereo not drawn) |  |  |  | 103% [middle of 25 runs] |  | 107% and 112% | 104% [middle of 25 runs] |  |  |  |  | viability, T/C (compound 3.16 µM): 105% [middle of 25 runs]; viability, T/C (compound 10 µM): 107% [middle of 23 runs]; pIC50 (compound alone, run of 11/29/2021): < 5.00
16 | NS(=O)(=O)OCC1CC(n2ccc3c(NC4CCc5ccccc54)ncnc32)CC1O (stereo not drawn) |  |  |  |  | 6.40 and 6.69 |  |  | 105% and 114% | 120% and 108% | 103% and 94.9% | 59.1% and 27.2% | viability, T/C (compound 0.949 µM): 21.5% and 8.78%; viability, T/C (compound 3 µM): 14% and 6.66%
17 | Nc1ccccc1NC(=O)c1ccc(CNC(=O)OCc2cccnc2)cc1 |  |  |  |  | 6.78 and 6.79 |  |  | 110% and 105% | 94.2% and 104% | 64.6% and 56.3% | 33.3% and 36% | viability, T/C (compound 0.949 µM): 15.7% and 17.6%; viability, T/C (compound 3 µM): 0.87% and 1.11%
18 | Nc1ccn(C2OC(CO)C(O)C2(F)F)c(=O)n1 (stereo not drawn) |  |  |  |  | > 9.02 |  |  | 21.2% and 23% | 23.5% and 25.3% | 23.3% and 24.1% | 21.9% and 23.4% | viability, T/C (compound 0.000949 µM): 24.4% and 23%; viability, T/C (compound 0.003 µM): 20.5% and 20.8%
19 | Nc1ncn(C2CC(O)C(CO)O2)c(=O)n1 (stereo not drawn) | 103% and 98.2% | 99.5% and 83.4% | 96.5% and 72.9% | 86.3% and 58.4% | < 6.00 and 6.06 | 73.2% and 54.2% | 67.8% and 49.4% |  |  |  |  | 
20 | Nc1ncn(C2CC(O)C(CO)S2)c(=O)n1 (stereo not drawn) |  |  |  |  |  |  |  | 87.3% and 55.7% | 69% and 39.4% | 58% and 34.1% | 44% and 27.4% | viability, T/C (compound 0.000949 µM): 108% and 85.9%; viability, T/C (compound 0.003 µM): 105% and 77%
21 | O=C(C=Cc1cccc(S(=O)(=O)Nc2ccccc2)c1)NO |  |  |  |  | 6.80 and 7.18 |  |  | 97.1% and 80.1% | 76.2% and 59% | 51.9% and 41.6% | 38.6% and 33.9% | viability, T/C (compound 0.949 µM): 28.6% and 14.6%; viability, T/C (compound 3 µM): 3.45% and 0.83%
22 | O=C(C=Cn1cnc(-c2cc(C(F)(F)F)cc(C(F)(F)F)c2)n1)NNc1cnccn1 | 87.2% and 64.4% | 56.7% and 27.2% | 35.6% and 23.6% | 31.5% and 16.4% | 7.84 and 8.30 | 28.4% and 14.6% | 23.4% and 14.3% |  |  |  |  | 
23 | O=C(c1cc(Cc2n[nH]c(=O)c3ccccc23)ccc1F)N1CCN(C(=O)C2CC2)CC1 |  |  | 90.5% and 78.2% | 99.3% and 78.3% | 5.31 and 6.20 | 92.2% and 59.4% | 75.5% and 42.5% |  |  |  |  | viability, T/C (compound 3.16 µM): 54.9% and 41.5%; viability, T/C (compound 10 µM): 43.3% and 30.9%
